Measurements: paper PMC8987933 (Frontiers in Nutrition, 2022)
Read-outs that look alike come from different tables or passages of the source.

Tests used:
human BCRP = conditions: cited from earlier work
human P-gp = conditions: cited from earlier work
OATP1A2 = conditions: cited from earlier work
OATP2B1 = conditions: cited from earlier work
OATP1B1 = conditions: cited from earlier work
[1] = cited from earlier work
clinical = conditions: human, in vivo
Source text: Healthy Chinese male subjects aged 18–45 years were recruited from a pool of over 200 healthy volunteers who had been genotyped for the ABCG2 421C>A (rs2231142) polymorphism. A total of 20 healthy Chinese male subjects were selected for the rosuvastatin pharmacokinetic study based on the ABCG2 421C>A genotypes. The study was reviewed and approved by the Joint Chinese University of Hong Kong-New Territories East Cluster Clinical Research Ethics Committee with reference number CRE-2010.524-T. The study was performed in accordance with the ethical standards laid down in the Declaration of Helsinki and subsequent revisions. Written informed consent was obtained from each participant.
All subjects were required to abstain from any prescription or non-prescription medications 2 weeks before and throughout the study. They were not allowed to take alcohol, tea, grapefruit juice, caffeine, soybean milk or dietary supplements and herbal products 2 weeks before and throughout the entire study period. They were also not allowed to smoke 2 weeks before and throughout the study. Subjects were requested to fast for 10 h before and 4 h after drug administration during the blood sampling sessions. Meals were standardized and consumed at 4 h and 10 h post-dosing. Drinking water was not allowed from 1 h pre-dose to 1 h post-dose except that needed for drug dosing at the time of blood sampling sessions. Subjects were asked to report any adverse effects at each visit to the study center.
This was an open-label, three-phase randomized crossover study. […] The herbal extracts were present as a powder which was taken in 150 ml water at room temperature. Blood samples were taken at intervals from 0 to 24 h on the rosuvastatin dosing days. During the study, subjects were frequently reminded of the requirements for diet restrictions, and they were requested to record their daily food intake, including the main meals, snacks and beverages of the day by using a simple food diary, which can help to monitor the food compliance during the study.
Plasma concentrations of rosuvastatin were determined by Liquid Chromatography-Tandem Mass Spectrometry (LC-MS/MS) using the corresponding isotopically labeled compound as an internal standard as described ([28]). The plasma samples were prepared using liquid–liquid extraction with diethyl ether. Chromatographic separation was accomplished on an Xterra MS C18 column (50 × 2.1 mm, 5 μm; Waters, Milford, MA). The mobile phase consisted of a gradient mixture of 0.015 mmol/L ammonium acetate in water (mobile phase A) and methanol (mobile phase B) at a flow rate of 0.4 mL/min. The gradient started at 20% mobile phase B for 0.5 min with a subsequent fast gradient to 100% mobile phase B in 1 min and maintained for another 2.5 min. The gradient was then returned to the initial mobile phase concentration in a chromatographic run of 8 min. MS/MS detection with quantification transition of m/z 480.1–418.1 and qualification transition of m/z 480.1–340.1 was used for rosuvastatin. The lower limit of quantification of rosuvastatin was 0.05 μg/L by using 200 μL plasma.
The pharmacokinetic parameters of rosuvastatin were calculated using non-compartmental methods with the aid of the computer program WinNolin (version 2.1, Pharsight Corporation). The maximum plasma concentration (Cmax) and time to Cmax (tmax) were obtained directly from the observed concentration-time data. The terminal elimination rate constant (λZ) was estimated by linear regression of the terminal portion of the concentration-time curve, and the elimination half-life (t1/2) was calculated as 0.693/λZ. Systemic exposure to rosuvastatin was evaluated by calculating the AUC using the linear trapezoidal rule and AUC0−∞ was calculated as AUC0−∞ = AUC0−t + Ct/Kel where Ct is the last quantifiable concentration. The oral clearance (CL/F) was calculated as Dose/AUC0−∞.

[2] = cited from earlier work; remark: listed apart in the source
[3] = with green tea; 10 healthy volunteers; cited from earlier work
[4] = cited from earlier work; remark: listed apart in the source
[5] = cited from earlier work; remark: listed apart in the source
OATP1B3 = conditions: in vitro studies; cited from earlier work
[6] = rosuvastatin administered with 300 mg pure crystalline EGCG (single dose)
[7] = pre-treatment with green tea extract (400 mg/kg) vs control

In the case of `Oc1cc(O)c2c(c1)O[C@H](c1ccc(O)c(O)c1)[C@H](O)C2` [EC, epicatechin], the “effect on BCRP-mediated dasatinib efflux” value (human BCRP) is listed as “no significant effect” and the “effect on P-gp-mediated dasatinib efflux” value (human P-gp) is listed as “no significant effect”.
In the case of `O=C(O[C@@H]1Cc2c(O)cc(O)cc2O[C@@H]1c1ccc(O)c(O)c1)c1cc(O)c(O)c(O)c1` [ECG, epicatechin gallate], the “effect on BCRP-mediated dasatinib efflux” value (human BCRP) is given as “no significant effect”, the “inhibition of OATP1A2” value (OATP1A2) is given as “can inhibit” and the “effect on P-gp-mediated dasatinib efflux” value (human P-gp) is given as “no significant effect”. The “inhibition of OATP2B1” value (OATP2B1) was “can inhibit” and the “inhibition of OATP1B1” value (OATP1B1) was “can inhibit”.
In the case of `Oc1cc(O)c2c(c1)O[C@H](c1cc(O)c(O)c(O)c1)[C@H](O)C2` [EGC, epigallocatechin], the “effect on BCRP-mediated dasatinib efflux” value (human BCRP) is listed as “no significant effect” and the “effect on P-gp-mediated dasatinib efflux” value (human P-gp) is listed as “no significant effect”.
In the case of `CC(C)c1nc(N(C)S(C)(=O)=O)nc(-c2ccc(F)cc2)c1/C=C/[C@@H](O)C[C@@H](O)CC(=O)O` [Rosuvastatin, rosuvastatin], the “systemic exposure of rosuvastatin vs baseline before EGCG” value ([1]; after giving EGCG daily for 10 days) is given as “not significantly different from the baseline value”, the “reduction of AUC up to 8 h” value [1, 6] is given as 19% and the “reduction of Cmax” value [1, 6] is given as 15%. For the same molecule, the “Clearance (oral clearance CL/F)” value (clinical; po, 10 mg) was 85.1 (28.4) L/h, the “AUC0−24h GMR (90%CI)” value (clinical; male) was 0.78 and the “Cmax GMR (90%CI)” value (clinical; male) was 0.71. For the same molecule, the AUC(0-inf) (clinical; male, 10 mg) was 118 ng·h/mL, the AUC(0-t) (clinical; male, 10 mg) was 109 ng·h/mL and the Cmax (clinical; male, 10 mg) was 13.1 (32.2) μg/L. The half-life (clinical; male, 10 mg) was 6.21 h, the tmax (clinical; male, 10 mg) was 3.0 (1.5, 6.0) h and the “change of systemic exposure of rosuvastatin after baicalin compared to placebo” value ([2]; SLCO1B1*1b/*1b subjects) was −41.9%. The “change of systemic exposure of rosuvastatin after baicalin compared to placebo” value ([2]; SLCO1B1*1b/*15 subjects) was −23.9%.
For `CC(C)(C)NCC(O)COc1cccc2c1CC(O)C(O)C2` (centres unmarked) [nadolol], the “decrease of AUC of nadolol” value [3] is given as 85.0%, the “decrease of Cmax of nadolol” value [3] is given as 85.3% and the “reduction in AUC of nadolol” value ([4]; EGCG alone (150 mg/kg)) is given as 73%. For the same molecule, the “reduction in Cmax of nadolol” value ([4]; EGCG alone (150 mg/kg)) was 81%, the “reduction in AUC of nadolol” value [4, 7] was 74% and the “reduction in Cmax of nadolol” value [4, 7] was 85%.
In the case of `CCN(CC)CCNC(=O)c1c(C)[nH]c(/C=C2\C(=O)Nc3ccc(F)cc32)c1C` [sunitinib], the “effect of EGCG on bioavailability of sunitinib” value ([5]; EGCG and sunitinib taken together) is listed as “reduced the bioavailability” and the “effect of EGCG on the pharmacokinetics of sunitinib” value ([5]; EGCG taken 8 or 4 h before sunitinib administration) is listed as “no effect”.
In the case of (–)-epigallocatechin-3-gallate [EGCG], the “effect on OATP1B3” value (OATP1B3) is listed as “activate”, the “effect on BCRP-mediated dasatinib efflux” value (human BCRP) is listed as “no significant effect” and the “effect on OATP1A2-mediated uptake of estrone-3-sulfate” value (OATP1A2; concentration-dependent) is listed as “inhibited”. For the same molecule, the “effect on P-gp-mediated dasatinib efflux” value (human P-gp) was “no significant effect” and the “effect on OATP2B1-mediated uptake of estrone-3-sulfate” value (OATP2B1; concentration-dependent) was “inhibited”.
